From PMC6261293 (European journal of medicinal chemistry, 2018)
In brackets after ≈: the same amount, converted by molar mass. Blank lines part the entries; values can stand above or below the molecule they belong to.

Tests used:
[1] = tested on: c-Jun phosphorylation in MonoMac-6 cells; assay: c-Jun; type: cell-based, human; settings: 30 min pretreatment, LPS 250 ng/ml 30 min
[2] = tested on: NF-κB/AP-1 reporter activity in THP-1Blue cells; assay: LPS-induced NF-κB/AP-1 alkaline phosphatase reporter assay; type: cell-based, human; settings: for inhibition of LPS-induced NF-κB/AP-1 activity: concentrations up to 50 µM
[3] = tested on: IL-6 production by MonoMac-6 cells; assay: LPS-induced IL-6 production; type: cell-based, human; settings: for IL-6 IC50: MonoMac-6 cells, 250 ng/ml LPS, 24 h, N.A. = no inhibition at concentrations <40 µM; for inhibition of LPS-induced IL-6 production: concentrations up to 50 µM
TRKA = TRKA (Homo sapiens, UniProt P04629); settings: ref [29], [30]; cited from earlier work
JNK3 = JNK3 (Homo sapiens, UniProt P53779); assay: KINOMEscan competition binding, JNK3; settings: N.A. = no inhibition at concentrations <40 µM
JNK2 = JNK2 (Homo sapiens, UniProt P45984); assay: KINOMEscan competition binding, JNK2; settings: N.A. = no inhibition at concentrations <40 µM
Solubility in DMSO = type: physicochemical; settings: organic solvent or mixture
[4] = THP-1Blue cells, 250 ng/ml LPS, 24 h, N.A. = no inhibition at concentrations <40 µM

TRKA, sequence (P04629 33-796): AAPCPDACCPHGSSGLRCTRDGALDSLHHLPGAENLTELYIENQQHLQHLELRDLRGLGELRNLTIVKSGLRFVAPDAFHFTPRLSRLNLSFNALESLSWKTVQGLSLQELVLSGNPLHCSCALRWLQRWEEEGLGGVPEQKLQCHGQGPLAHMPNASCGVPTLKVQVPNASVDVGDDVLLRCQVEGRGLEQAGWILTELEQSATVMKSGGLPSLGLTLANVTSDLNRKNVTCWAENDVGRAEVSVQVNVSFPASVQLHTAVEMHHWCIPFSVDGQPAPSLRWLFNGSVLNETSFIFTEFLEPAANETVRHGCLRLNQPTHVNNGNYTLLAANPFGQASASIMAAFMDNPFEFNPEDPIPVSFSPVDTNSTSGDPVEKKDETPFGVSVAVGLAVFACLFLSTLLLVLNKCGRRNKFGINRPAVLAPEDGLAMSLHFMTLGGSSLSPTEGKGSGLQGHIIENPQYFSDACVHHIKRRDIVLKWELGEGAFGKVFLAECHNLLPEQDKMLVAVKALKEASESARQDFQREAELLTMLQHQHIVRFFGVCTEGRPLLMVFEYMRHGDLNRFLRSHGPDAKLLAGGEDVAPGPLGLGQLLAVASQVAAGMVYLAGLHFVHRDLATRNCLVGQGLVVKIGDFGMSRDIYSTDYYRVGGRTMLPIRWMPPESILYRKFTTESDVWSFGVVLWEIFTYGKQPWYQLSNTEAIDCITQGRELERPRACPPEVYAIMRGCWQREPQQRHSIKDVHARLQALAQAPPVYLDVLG
JNK2, sequence (P45984 whole entry): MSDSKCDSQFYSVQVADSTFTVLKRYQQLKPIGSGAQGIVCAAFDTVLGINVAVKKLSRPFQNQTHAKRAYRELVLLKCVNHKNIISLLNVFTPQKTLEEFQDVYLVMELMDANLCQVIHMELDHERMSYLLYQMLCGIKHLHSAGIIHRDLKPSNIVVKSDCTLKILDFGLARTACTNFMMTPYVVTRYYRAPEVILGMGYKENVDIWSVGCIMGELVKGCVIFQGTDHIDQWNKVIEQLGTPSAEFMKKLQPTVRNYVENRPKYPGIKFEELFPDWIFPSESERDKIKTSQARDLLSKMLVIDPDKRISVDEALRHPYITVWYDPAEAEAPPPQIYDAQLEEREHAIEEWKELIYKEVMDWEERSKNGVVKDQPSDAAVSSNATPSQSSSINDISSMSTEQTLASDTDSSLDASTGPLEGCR
JNK3, sequence (P53779 whole entry): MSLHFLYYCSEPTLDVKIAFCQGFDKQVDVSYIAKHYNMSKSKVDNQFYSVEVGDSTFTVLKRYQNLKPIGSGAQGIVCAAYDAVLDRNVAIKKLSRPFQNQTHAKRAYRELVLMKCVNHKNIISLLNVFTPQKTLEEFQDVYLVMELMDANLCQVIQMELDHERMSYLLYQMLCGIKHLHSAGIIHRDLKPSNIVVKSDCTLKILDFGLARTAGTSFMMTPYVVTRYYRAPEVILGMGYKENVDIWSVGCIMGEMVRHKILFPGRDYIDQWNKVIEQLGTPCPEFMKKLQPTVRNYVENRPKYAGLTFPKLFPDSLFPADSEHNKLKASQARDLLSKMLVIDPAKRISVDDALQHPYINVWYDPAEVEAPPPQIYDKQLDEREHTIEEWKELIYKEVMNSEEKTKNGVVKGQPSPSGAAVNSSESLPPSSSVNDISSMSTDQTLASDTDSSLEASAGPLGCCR

Molecule: CCOC(=O)CO/N=C1\c2ccccc2-c2nc3ccccc3nc21 [10c, 11H-Indeno[1,2-b]quinoxalin-11-one O-(O-ethylcarboxymethyl) oxime]
inhibition of c-Jun phosphorylation [1]: inhibited c-Jun phosphorylation

NF-κB/AP-1 IC50 [2, 4]: did not inhibit | IL-6 IC50 [3]: did not inhibit
Molecule: [Na+].[O-]/N=C1/c2ccccc2-c2nc3ccc(C(F)(F)F)cc3nc21 [6h, 8-Trifluoromethyl-11H-indeno[2,3-b]quinoxalin-11-one oxime]

NF-κB/AP-1 IC50 [2, 4]: did not inhibit | IL-6 IC50 [3]: did not inhibit
Molecule: [Na+].[O-]/N=C1/c2ccccc2-c2nc3c(Cl)cc(Cl)cc3nc21 [6b, 6,8-Dichloro-11H-indeno[2,3-b]quinoxalin-11-one oxime]

IC50 ([2]; read-out: NF-κB/AP-1 IC50, THP-1Blue cells, 250 ng/ml LPS, 24 h, N.A. = no inhibition at concentrations <40 µM): 3.4 ± 0.5 µM
Molecule: anthra[1–9-cd]pyrazol-6(2H)-one [SP600125, reference compound]

Molecule: O=C1c2ccccc2-c2nc3ccncc3nc21 [compound 5, 10H-Indeno[1,2-b]pyrido[3,4-e]pyrazin-10-one]
inhibition of LPS-induced NF-κB/AP-1 activity [2]: did not inhibit | inhibition of LPS-induced IL-6 production [3]: did not inhibit

Molecule: O=C1c2ccccc2-c2nc3ncccc3nc21 [3a, 6H-Indeno[1,2-b]pyrido[3,2-e]pyrazin-6-one]
inhibition of LPS-induced NF-κB/AP-1 activity [2]: did not inhibit | inhibition of LPS-induced IL-6 production [3]: did not inhibit

Molecule: O=C(O/N=C1\c2ccccc2-c2nc3ccccc3nc21)c1ccco1 [IQ-3]
binding to TRK-A (TRKA): did not bind

Molecule: O=C1c2ccccc2-n2c1nc1ccccc1c2=O [Trp, tryptanthrin, reference compound]
JNK3 Kd (JNK3): inactive | JNK2 Kd (JNK2): inactive | inhibition of LPS-induced NF-κB/AP-1 activity [2]: did not inhibit | inhibition of LPS-induced IL-6 production [3]: did not inhibit

solubility (Solubility in DMSO): ~10 mM (≈ 2470 µg/mL)
Molecule: O/N=C1\c2ccccc2-c2nc3ccccc3nc21 [IQ-1, 11H-indeno[1,2-b]quinoxalin-11-one oxime]
binding to TRK-A (TRKA): did not bind
